The values below come from patent publication US5663417A, “Carbocyclic sulfonamides” (Ono Pharmaceutical Co., Ltd., priority 1993, dated 1997).

The target in the first test is prostaglandin E2 receptor. As to the kind of experiment: inhibition of [^3 H]-PGE2 receptor binding in rat uterus membrane fraction. The note with it: Table I; 5 nM [^3 H]-PGE2, rat uterus crude membrane fraction, pH 6.0, 1 hour at room temperature; read-out: IC50, inhibitory effects of PGE2 receptor binding in rat. How it is done: (i) The measurement of the inhibition of [^3 H]-PGE2 receptor binding
The standard assay mixture contained 5 nM [^3 H]-PGE2 (50 μl), test compounds (50 μl) and crude membrane fraction obtained from rat uterus (1.2 mg protein/ml, 100 μl) in a final volume of 200 μl (10 mM potassium phosphate pH 6.0, 0.1M NaCl (buffer A)). After incubation for 1 hour at room temperature, the reaction was stopped by the addition of 3 ml of ice-cold buffer A, after which the mixture was rapidly filtered through a Whatman GF/B glass filter. The radioactivity associated with the filter was measured in ACS II (Amarsham) by liquid scintillation counting. Percent inhibition of specific [^3 H]-PGE2 binding or IC50 value, the concentration required to compete with ^3 H-PGE2 receptor binding by 50% were calculated.
What is called IC50 is the concentration at which inhibition is half-maximal. As for `O=C(O)CCCC=CC1C2CCC(C2)C1CNS(=O)(=O)c1ccc(Br)cc1` (stereo not shown) [U.S. Pat. No. 5168101 1 (cc)], the IC50 was found to be 390 nM.

For `CC1(C)[C@H]2C[C@H](NS(=O)(=O)c3ccc(Br)cc3)[C@@H](C/C=C\CCCC(=O)O)[C@@H]1C2` [Example 2, 7-[(1S,2S,3S,5R)-3-(4-bromophenyl)sulfonylamino-6,6-dimethylbicyclo [3.1.1]heptan-2-yl]-5Z-heptenoic acid], the 50% inhibitory concentration (IC50) came to 440 nM.

Turning to `Cc1ccc(S(=O)(=O)N[C@H]2[C@H]3CC[C@H](C3)[C@@H]2C/C=C\CCCC(=O)O)cc1` (relative stereo) [5 (c), 7-[(1R*,2S*,3S*,4S*)-3-tosylaminobicyclo[2.2.1]heptan-2-yl]-5Z-heptenoic acid], the IC50 stood at 5700 nM.

With `O=C(O)CCC/C=C\[C@@H]1CCC[C@H](NS(=O)(=O)c2ccc(Br)cc2)C1` (relative stereo) [U.S. Pat. No. 5168101 1 (m)], the IC50 stood at 500 nM.

With `CCc1ccc(S(=O)(=O)N[C@H]2C[C@H]3C[C@@H]([C@@H]2C/C=C\CCCC(=O)O)C3(C)C)cc1` [3 (b), 7-[(1S,2S,3S,5R)-3-(4-ethylphenyl)sulfonylamino-6,6-dimethylbicyclo[3.1.1]heptan-2-yl]-5Z-heptenoic], the IC50 came to 570 nM.

As for `Cc1ccc(S(=O)(=O)NCC2CCCC2/C=C\CCCC(=O)O)cc1` (stereo not shown), the 50% inhibitory concentration (IC50) was 8000 nM.

On to `O=C(O)CCC/C=C\[C@@H]1CCC[C@@H](NS(=O)(=O)c2ccc(Br)cc2)C1` (relative stereo) [U.S. Pat. No. 5168101 1 (l)], for which the concentration for half-maximal inhibition (IC50) amounted to 2400 nM.

Consider `CC1(C)[C@H]2C[C@H](NS(=O)(=O)CCc3ccccc3)[C@@H](C/C=C\CCCC(=O)O)[C@@H]1C2` [3 (m), 7-[(1S,2S,3S,5R)-3-(2-phenylethyl)sulfonylamino-6,6-dimethylbicyclo[3.1.1]heptan-2-yl]-5Z-heptenoic acid], for which the IC50 is 5.4 nM.

In the case of `O=C(O)CCC/C=C\C1CC2CC(NS(=O)(=O)c3ccc(Br)cc3)C1C2` (stereo not shown) [U.S. Pat. No. 5168101 1 (b)], the IC50 turned out to be 3500 nM.

As to `CCCCCCCCS(=O)(=O)N[C@H]1C[C@H]2C[C@@H]([C@@H]1C/C=C\CCCC(=O)O)C2(C)C` [3 (l), 7-[(1S,2S,3S,5R)-3-octylsulfonylamino-6,6-dimethylbicyclo[3.1.1]heptan-2-yl]-5Z-heptenoic acid], the IC50 came out at 360 nM.

Regarding `Cc1ccc(S(=O)(=O)NCC2C3CCC(C3)C2/C=C\CCCC(=O)O)cc1` (stereo not shown) [U.S. Pat. No. 5168101 1 (p)], the IC50 worked out at 6400 nM.

With `CC1(C)[C@H]2C[C@H](NS(=O)(=O)c3ccc(I)cc3)[C@@H](C/C=C\CCCC(=O)O)[C@@H]1C2` [3 (g), 7-[(1S,2S,3S,5R)-3-(4-iodophenyl)sulfonylamino-6,6-dimethylbicyclo[3.1.1]heptan-2-yl]-5Z-heptenoic], the IC50 worked out at 54 nM.

Take `CCCCS(=O)(=O)N[C@H]1C[C@H]2C[C@@H]([C@@H]1C/C=C\CCCC(=O)O)C2(C)C` [3 (j), 7-[(1S,2S,3S,5R)-3-butylsulfonylamino-6,6-dimethylbicyclo[3.1.1]heptan-2-yl]-5Z-heptenoic acid]: the half-inhibitory concentration (IC50) came out at 5000 nM.

In the case of `CC(C)(C)c1ccc(S(=O)(=O)N[C@H]2C[C@H]3C[C@@H]([C@@H]2C/C=C\CCCC(=O)O)C3(C)C)cc1` [3 (c), 7-[(1S,2S,3S,5R)-3-(4-tert-butylphenyl)sulfonylamino-6,6-dimethylbicyclo[3.1.1]heptan-2-yl]-5Z-heptenoic acid], the IC50 was 6300 nM.

As for `O=C(O)CCCC=CC1C2C=CC(C2)C1CNS(=O)(=O)c1ccc(Br)cc1` (stereo not shown) [U.S. Pat. No. 5168101 1 (bb)], the IC50 is 820 nM.

On to `O=C(O)CCCC=CC1C2CCC(C2)C1CNS(=O)(=O)c1ccc(Br)cc1` [5 (i), 6-[(1S,2S,3S,4R)-3-(4-bromophenylsulfonylaminomethyl)bicyclo[2.2.1]heptan-2-yl]-5Z-hexenoic acid], for which the half-maximal inhibitory concentration (IC50) turned out to be 6500 nM.

With `CC1(C)[C@H]2C[C@H](NS(=O)(=O)c3ccccc3)[C@@H](C/C=C\CCCC(=O)O)[C@@H]1C2` [3 (a), 7-[(1S,2S,3S,5R)-3-phenylsulfonylamino-6,6-dimethylbicyclo[3.1.1]heptan-2-yl]-5Z-heptenoic], the IC50 was 7600 nM.

As for `Cc1ccc(S(=O)(=O)N[C@H]2C3CCC(CC3)[C@@H]2C/C=C\CCCC(=O)O)cc1` (relative stereo) [5 (a), 7-[(2S*,3S*)-3-tosylaminobicyclo[2.2.2]octan-2-yl]-5Z-heptenoic acid], the IC50 is 3600 nM.

Turning to `CC1(C)[C@H]2C[C@H](NS(=O)(=O)c3ccc4ccccc4c3)[C@@H](C/C=C\CCCC(=O)O)[C@@H]1C2` [3 (i), 7-[(1S,2S,3S,5R)-3-(2-naphtyl)sulfonylamino-6,6-dimethylbicyclo[3.1.1]heptan-2-yl]-5Z-heptenoic], the IC50 worked out at 90 nM.

Turning to `Cc1ccc(S(=O)(=O)NC2C3CCC(C3)C2C/C=C\CCCC(=O)O)cc1` (racemic) [5 (b), a mixture of 7-[(1R,2S,3S, 4S)-3-tosylaminobicyclo[2.2.1]heptan-2-yl]-5Z-heptenoic acid and an isomer of (1S, 2S,3S,4R)], the concentration for half-maximal inhibition (IC50) came to 3400 nM.

Turning to `O=C(O)CCC/C=C\C1CC2CC(NS(=O)(=O)c3ccc(Br)cc3)C1C2` (stereo not shown) [U.S. Pat. No. 5168101 1 (c)], the concentration for half-maximal inhibition (IC50) worked out at 500 nM.

As for `O=C(O)CCC/C=C\C[C@H]1CCC[C@@H]1NS(=O)(=O)c1ccc(Br)cc1` (relative stereo) [5 (h), 7-[(1R*,2S*)-2-(4-bromophenylsulfonylamino)cyclopentyl]-5Z-heptenoic acid], the IC50 turned out to be 200 nM.

With `COc1ccc(S(=O)(=O)N[C@H]2C[C@H]3C[C@@H]([C@@H]2C/C=C\CCCC(=O)O)C3(C)C)cc1` [3 (d), 7-[(1S,2S,3S,5R)-3-(4-methoxyphenyl)sulfonylamino-6,6-dimethylbicyclo[3.1.1]heptan-2-yl]-5Z-heptenoic acid], the half-maximal inhibitory concentration (IC50) stood at 820 nM.

On to `CC1(C)[C@H]2C[C@H](NS(=O)(=O)c3ccc(Cl)cc3)[C@@H](C/C=C\CCCC(=O)O)[C@@H]1C2` [3 (f), 7-[(1S,2S,3S,5R)-3-(4-chlorophenyl)sulfonylamino-6,6-imethylbicyclo[3.1.1]heptan-2-yl]-5Z-heptenoic], for which the IC50 worked out at 750 nM.

`O=C(O)CCC/C=C\[C@@H]1CC[C@H](NS(=O)(=O)c2ccc(Br)cc2)C1` [U.S. Pat. No. 5168101 1 (i)]: the IC50 amounted to 2400 nM.

For `CCCCCCS(=O)(=O)N[C@H]1C[C@H]2C[C@@H]([C@@H]1C/C=C\CCCC(=O)O)C2(C)C` [3 (k), 7-[(1S,2S,3S,5R)-3-hexylsulfonylamino-6,6-dimethylbicyclo[3.1.1]heptan-2-yl]-5Z-heptenoic acid], the IC50 worked out at 25 nM.

`Cc1ccc(S(=O)(=O)N[C@H]2C3CCC(CC3)[C@@H]2C/C=C\CCCC(=O)O)cc1` [5 (d), 7-[(2S,3S)-3-tosylaminobicyclo[2.2.2]octan-2-yl]-5Z-heptenoic acid]: the IC50 was 2100 nM.

With `CC1(C)[C@H]2C[C@H](NS(=O)(=O)CCC3CCCCC3)[C@@H](C/C=C\CCCC(=O)O)[C@@H]1C2` [3 (n), 7-[(1S,2S,3S,5R)-3-(2-cyclohexylethyl)sulfonylamino-6,6-dimethylbicyclo[3.1.1]heptan-2-yl]-5Z-heptenoic acid], the half-inhibitory concentration (IC50) stood at 120 nM.

For `CC1(C)[C@H]2C[C@H](NS(=O)(=O)c3ccc([N+](=O)[O-])cc3)[C@@H](C/C=C\CCCC(=O)O)[C@@H]1C2` [3 (h), 7-[(1S,2S,3S,5R)-3-(4-nitrophenyl)sulfonylamino-6,6-dimethylbicyclo[3.1.1]heptan-2-yl]-5Z-heptenoic], the 50% inhibitory concentration (IC50) was 210 nM.

Regarding `O=C(O)CCC/C=C\C1CCCC1CNS(=O)(=O)c1ccc(Br)cc1` (stereo not shown), the IC50 came out at 1800 nM.

With `O=C(O)CCC/C=C\C1CCCCC1CNS(=O)(=O)c1ccc(Br)cc1` (stereo not shown) [U.S. Pat. No. 5168101 1 (t)], the 50% inhibitory concentration (IC50) stood at 1200 nM.

As for `Cc1ccc(S(=O)(=O)N[C@H]2CCC[C@@H]2C/C=C\CCCC(=O)O)cc1` (relative stereo) [5 (g), 7-[(1R*,2S*)-2-tosylaminocyclopentyl-5Z-heptenoic acid], the IC50 came out at 3500 nM.

The same test, now with this note: Table II; 5 nM [^3 H]-PGE2, rat uterus crude membrane fraction, pH 6.0, 1 hour at room temperature; read-out: IC50, inhibitory effects of PGE2 receptor binding in rat.
On to `CC1(C)[C@H]2C[C@H](NS(=O)(=O)/C=C/c3ccccc3)[C@@H](C/C=C/CCCC(=O)O)[C@@H]1C2` [6 (26), 7-[(1S, 2S, 3S, 5R)-3-(2-phenylvinylsulfonylamino)-6,6-dimethylbicyclo [3.1.1]heptan-2-yl]-5E-heptenoic acid], for which the IC50 stood at 38 nM.

Take `O=C(O)CCC/C=C\[C@H]1CC[C@@H](NS(=O)(=O)/C=C/c2ccccc2)C1` [6 (22), 6-[(1S, 3R)-3-(2-phenylvinylsulfonyl-amino)cyclopentyl]-5Z-hexenoic]: the IC50 amounted to 1800 nM.

Turning to `CC1(C)[C@H]2C[C@H](NS(=O)(=O)C=C(c3ccccc3)c3ccccc3)[C@@H](C/C=C\CCCC(=O)O)[C@@H]1C2` [Example 9, 7-[(1S,2S,3S,5R)-3-(2,2-diphenylvinylsulfonylamino)-6,6-dimethylbicyclo[3.1.1]heptan-2-yl]-5Z-heptenoic acid], the 50% inhibitory concentration (IC50) worked out at 260 nM.

`O=C(O)CCC/C=C\[C@@H]1CCC[C@@H](NS(=O)(=O)/C=C/c2ccccc2)C1` (relative stereo) [6 (21), 6-[(1R*, 3R*)-3-(2-phenylvinylsulfonylamino)cyclohexyl]-5Z-hexenoic]: the IC50 was 600 nM.

For `O=C(O)CCC/C=C\[C@@H]1[C@H]2CC[C@H](C2)[C@H]1CNS(=O)(=O)/C=C/c1ccccc1` [6 (18), 6-[(1S, 2S, 3R, 4R)-3-(2-phenylvinylsulfonylaminomethyl)bicyclo[2.2.1]heptan-2-yl]-5Z-hexenoic acid], the IC50 is 17 nM.
